Patent US11155557B2, “Pyrazolopyrimidine compounds and methods of use thereof” (Genentech, Inc., priority 2016, dated 2021)
Where two headings read alike, the source gives them in different places.

Legend:
[1] = target: isolated recombinant JAK1 kinase domain (Homo sapiens (Human), UniProt P23458); test: JAK1 enzyme assay (Caliper LabChip, Ki); assay type: biochemical
Protocol: The activity of the isolated recombinant JAK1 and JAK2 kinase domain was measured by monitoring phosphorylation of a peptide derived from JAK3 ([…] fluorescently labeled on the N-terminus with 5-carboxyfluorescein) using the Caliper LabChip R technology (Caliper Life Sciences, Hopkinton, Mass.).

[2] = test system: JAK1-dependent STAT6 phosphorylation in BEAS-2B human bronchial epithelial cells; test: JAK1 pathway assay: IL-13 stimulated STAT6 phosphorylation in BEAS-2B cells; assay type: cell-based; settings: Homo sapiens, BEAS-2B, BEAS-2B cells, IL-13 stimulation; read-out: IL-13 p-STAT6 BEAS-2B IC50
Method in brief: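 BEAS-2B bronchial epithelial cells plated one day before, run in complete growth medium. Phospho-STAT6 in lysates measured by MesoScale Discovery; EC50 reported.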

[3] = target: isolated recombinant JAK2 kinase domain (Homo sapiens (Human), UniProt O60674); test: JAK2 enzyme assay (Caliper LabChip, Ki)
isolated recombinant JAK2 kinase domain, sequence (O60674 849-1124): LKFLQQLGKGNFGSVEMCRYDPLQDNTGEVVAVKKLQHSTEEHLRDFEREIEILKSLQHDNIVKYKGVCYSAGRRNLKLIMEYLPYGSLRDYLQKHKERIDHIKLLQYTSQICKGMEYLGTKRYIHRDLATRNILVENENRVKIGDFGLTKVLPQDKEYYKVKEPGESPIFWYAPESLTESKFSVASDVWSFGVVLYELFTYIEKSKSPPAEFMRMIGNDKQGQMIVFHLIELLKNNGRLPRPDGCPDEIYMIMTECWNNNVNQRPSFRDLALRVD
Protocol: JAK Enzyme Assays were Carried Out as Follows:
The activity of the isolated recombinant JAK1 and JAK2 kinase domain was measured by monitoring phosphorylation of a peptide derived from JAK3 ([sequence] fluorescently labeled on the N-terminus with 5-carboxyfluorescein) using the Caliper LabChip R technology (Caliper Life Sciences, Hopkinton, Mass.). […] After termination of the kinase reaction, the proportion of phosphorylated product was determined as a fraction of total peptide substrate using the Caliper LabChip R 3000 according to the manufacturer's specifications.

isolated recombinant JAK1 kinase domain, sequence (P23458 875-1153): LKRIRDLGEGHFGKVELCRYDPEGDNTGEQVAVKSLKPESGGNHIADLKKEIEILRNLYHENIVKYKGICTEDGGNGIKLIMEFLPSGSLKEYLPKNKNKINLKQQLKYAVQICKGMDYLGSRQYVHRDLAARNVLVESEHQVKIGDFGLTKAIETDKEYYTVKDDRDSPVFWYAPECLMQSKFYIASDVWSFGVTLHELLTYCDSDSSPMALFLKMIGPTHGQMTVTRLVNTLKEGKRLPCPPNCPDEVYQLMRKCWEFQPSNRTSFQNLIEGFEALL

Structure (SMILES)	Ki [1] [nM]	IC50 [2] [nM]	Ki ([3]; read-out: JAK2 Ki) [nM]	Ki [3] [nM]
O=C(Nc1cn(CC(=O)N2CCC(CN3CCOCC3)CC2)nc1-c1cc2sccc2cc1OC(F)F)c1cnn2cccnc12 [Example 65, N-[3-[5-(difluoromethoxy)benzothiophen-6-yl]-1-[2-[4-(morpholinomethyl)-1-piperidyl]-2-oxo-ethyl]pyrazol-4-yl]pyrazolo[1,5-a]pyrimidine-3-carboxamide]	0.41	13	0.6	–
O=C(Nc1cn(CC(=O)N2CCC(N3CCOCC3)CC2)nc1-c1cc2sccc2cc1OC(F)F)c1cnn2cccnc12 [Example 66, N-[3-[5-(difluoromethoxy)benzothiophen-6-yl]-1-[2-(4-morpholino-1-piperidyl)-2-oxo-ethyl]pyrazol-4-yl]pyrazolo[1,5-a]pyrimidine-3-carboxamide]	0.3	21	0.49	–
CCN1CCN(C(=O)Cn2cc(NC(=O)c3cnn4cccnc34)c(-c3cc4ccccc4cc3OC(F)F)n2)CC1 [Example 67, N-[3-[3-(difluoromethoxy)-2-naphthyl]-1-[2-(4-ethylpiperazin-1-yl)-2-oxo-ethyl]pyrazol-4-yl]pyrazolo[1,5-a]pyrimidine-3-carboxamide]	2.11	53	–	4.07
O=CN1CCN(C(=O)Cn2cc(NC(=O)c3cnn4cccnc34)c(-c3cc4ccccc4cc3OC(F)F)n2)CC1 [Example 68, N-[3-[3-(difluoromethoxy)-2-naphthyl]-1-[2-(4-formylpiperazin-1-yl)-2-oxo-ethyl]pyrazol-4-yl]pyrazolo[1,5-a]pyrimidine-3-carboxamide]	0.88	35	–	1.62
CN(C)C(=O)CN1CCN(C(=O)Cn2cc(NC(=O)c3cnn4cccnc34)c(-c3cc4ccccc4cc3OC(F)F)n2)CC1 [Example 69, N-[3-[3-(difluoromethoxy)-2-naphthyl]-1-[2-[4-[2-(dimethylamino)-2-oxo-ethyl]piperazin-1-yl]-2-oxo-ethyl]pyrazol-4-yl]pyrazolo[1,5-a]pyrimidine-3-carboxamide]	0.44	152	0.94	–
CC(C)(C)OC(=O)N1CCN(C(=O)Cn2cc(NC(=O)c3cnn4cccnc34)c(-c3cc4ccccc4cc3OC(F)F)n2)CC1 [Example 70, tert-butyl 4-[2-[3-[3-(difluoromethoxy)-2-naphthyl]-4-(pyrazolo[1,5-a]pyrimidine-3-carbonylamino)pyrazol-1-yl]acetyl]piperazine-1-carboxylate]	0.35	25	1.16	–
O=C(Nc1cn(CC(=O)N2CCNCC2)nc1-c1cc2ccccc2cc1OC(F)F)c1cnn2cccnc12 [Example 71, N-[3-[3-(difluoromethoxy)-2-naphthyl]-1-(2-oxo-2-piperazin-1-yl-ethyl)pyrazol-4-yl]pyrazolo[1,5-a]pyrimidine-3-carboxamide]	0.86	78	1.6	–
CN1CCC[C@@H]1Cn1cc(NC(=O)c2cnn3cccnc23)c(-c2cc3c(cc2OC(F)F)NCCS3)n1 [Example 72, N-[3-[6-(difluoromethoxy)-3,4-dihydro-2H-1,4-benzothiazin-7-yl]-1-[[(2R)-1-methylpyrrolidin-2-yl]methyl]pyrazol-4-yl]pyrazolo[1,5-a]pyrimidine-3-carboxamide]	0.22	10	0.22	–
CN1CCC[C@@H]1Cn1cc(NC(=O)c2cnn3cccnc23)c(-c2cc3c(cc2OC(F)F)NC(=O)CS3)n1 [Example 73, N-[3-[6-(difluoromethoxy)-3-oxo-4H-1,4-benzothiazin-7-yl]-1-[[(2R)-1-methylpyrrolidin-2-yl]methyl]pyrazol-4-yl]pyrazolo[1,5-a]pyrimidine-3-carboxamide]	0.2	9	0.19	–
